Results taken from patent US11076597B2, “High stress resistant plant growth regulator and preparation method and use thereof” (SHANGHAI INSTITUTES FOR BIOLOGICAL SCIENCES, CHINESE …, priority 2015, dated 2021).
pEC50: −log10 of the molar value. “Also recorded” adds a separate entry of the source. Read-outs that look alike come from different tables or passages of the source.

How the values were obtained:
[1] = target: T1, PYL2 receptor-HAB1 protein phosphatase complex (Arabidopsis thaliana, UniProt O80992); assay: AlphaScreen assay: promotion of PYL2 receptor binding to PP2C protein phosphatase HAB1; conditions: 6×His-SUMO-tagged PYL2 (aa 14-188), Biotin-tagged HAB1 (aa 172-511), 100 nM each, pH 7.4, 1.5 h room temperature
T1 construct: made in house; host or cells: E. coli BL21 (DE3)
T1 sequence (O80992 14-188): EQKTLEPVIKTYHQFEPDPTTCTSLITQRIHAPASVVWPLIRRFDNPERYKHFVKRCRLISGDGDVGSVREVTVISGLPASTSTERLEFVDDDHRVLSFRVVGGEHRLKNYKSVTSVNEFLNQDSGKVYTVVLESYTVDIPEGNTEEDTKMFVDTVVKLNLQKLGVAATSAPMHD
T1 sequence (Q9CAJ0 172-511 partner limits assumed): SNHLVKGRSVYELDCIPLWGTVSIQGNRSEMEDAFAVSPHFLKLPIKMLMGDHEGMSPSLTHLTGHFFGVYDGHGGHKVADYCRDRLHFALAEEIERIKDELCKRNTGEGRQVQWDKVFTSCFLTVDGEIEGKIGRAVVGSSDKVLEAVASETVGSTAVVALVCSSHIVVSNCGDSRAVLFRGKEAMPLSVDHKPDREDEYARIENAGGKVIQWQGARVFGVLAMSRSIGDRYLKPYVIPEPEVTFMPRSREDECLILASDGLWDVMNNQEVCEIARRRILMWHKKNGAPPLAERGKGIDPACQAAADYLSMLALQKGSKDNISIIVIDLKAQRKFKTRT
From the text: The construction method of recombinant plasmids for the Arabidopsis thaliana genes PYL1 (amino acid sequence 36-211), PYL2 (amino acid sequence 14-188) with dual tags of 6×His and SUMO sequence and the Arabidopsis thaliana gene HAB1 (amino acid sequence 172-511) with the Biotin tag sequence is described in detail in “A gate-latch-lock mechanism for hormone signaling by abscisic acid receptors” (Nature, Vol 462, 2009). The construction method of recombinant plasmids for PYR1 and PYL7 (whole gene coding sequence) and Soybean GmPYL6 and rice OsPYL2 with dual tags of 6×His and SUMO sequence is the same as that for Arabidopsis PYL2.
The above recombinant plasmid is transformed into competent cell of E. coli BL21 (DE3) (purchased from NEB company), and inoculated into 200 ml of LB liquid medium containing Amp resistance (purchased from OXOID company) and cultured overnight at 37° C. at 200 rpm; and inoculated into 2 L of LB liquid medium containing Amp resistance at a ratio of 1:50-1:100 for an extended culture, and cultured at 37° C., 200 rpm for 3-4 hours, and at a low temperature of 16° C. until OD600 is about 0.8-1.0. Recombinant plasmids for PYR1/PYL1/PYL2/PYL7/GmPYL6/OsPYL2 with dual tags of 6×His and SUMO sequence were induced overnight with 100 μM of IPTG while HAB1 recombinant plasmid with the Biotin tag sequence was induced simultaneously with 100 μM of IPTG and 40 μM of biotin.
After 16 hours of induction, the bacterial solution was centrifuged at 4000 rpm for 20 minutes at 4° C. in a low-speed high-capacity centrifuge, and the bacteria cells were collected. Bacteria cells were resuspended in 50 ml of extraction buffer (containing 20 mM Tris, pH 8.0, 200 mM NaCl and 10% (v/v) glycerol) for per 2 L of bacterial solution and then subjected to pressure-breaking at […] and 4° C. for 3-5 times. The broken cells were subjected to ultracentrifugation, centrifuged at 16000 rpm for 30 minutes, and this process was repeated twice. The supernatant was collected and subjected to an affinity chromatography column.
For PYR/PYL proteins with dual tags of 6×His and SUMO sequences, 50 ml of affinity chromatography Ni column (50 ml Ni-NTA column, available from GE) was used. Firstly, the column was equilibrated with 600 ml of 10% buffer B (containing 20 mM Tris, PH 8.0, 200 mM NaCl, 500 mM imidazole and 10% glycerol), and then eluted with 200 ml of 50% buffer B and finally eluted with 100 ml of 100% buffer B. Proteins for crystal analysis were mixed with ulp1 enzyme at a molar ratio of 1000:1 for enzymatic dialysis overnight. The digested proteins were subjected to affinity chromatography on a Ni column once more. The collected solution was subjected to a HiLoad 26/60 Superdex200 gel filtration column (commercially available from GE) and eluted with an elution solution (containing 25 mM Tris, pH 8.0, 200 mM ammonium acetate, 1 mM dithiotreitol and 1 mM EDTA) to further separate and purify the protein.
For a HAB1 protein with a Biotin tag sequence, it was subjected to a 50 ml MBP affinity column (available from GE). The column was firstly equilibrated with 600 ml of 10% buffer C (containing 20 mM Tris, pH 8.0, 200 mM NaCl, 10 mM Maltose and 10% Glycerol), and eluted with 200 ml of 50% buffer C and finally eluted with 100 ml of 100% buffer C. The collection solution was subjected to a HiLoad 26/60 Superdex200 gel filtration column and eluted with an elution solution (containing 20 mM Tris, pH 8.0, 200 mM NaCl and 10% Glycerol) to further separate and purify the protein. […]

[2] = test system: Arabidopsis aba2-1; assay: Leaf transpiration experiment (leaf temperature by thermal imager), Arabidopsis; format: in vivo, Arabidopsis thaliana; conditions: for duration of the leaf temperature increase: FIG. 4a, 4c; for inhibitory effect on leaf transpiration compared with ABA: Arabidopsis aba2-1, spray
Description: ABA synthesis mutant aba2-1 was used in Arabidopsis leaf transpiration experiment. […] Therefore, this mutant is used to exclude the effect of endogenous ABA on the transpiration experiment. The plants were sprayed with a solution containing 0.05% tween-20 and corresponding concentrations of (+)-ABA/0224/0304/0706/0715/0428 or 0.05% Tween-20 and 0.05% DMSO (control) after three weeks of continuous watering with an amount of 1.2 ml/pot. Leaf transpiration experiments of soybeans were conducted at 26° C. with long-day lighting and soybeans were sprayed with a solution containing 0.1% tween-20 and 20 μM (+)-ABA/0224/0304 compound or 0.1% Tween-20 and 0.05% DMSO (control) 14 days after sowing with an amount of 4 ml/pot; the leaf transpiration experiments of cottons were sprayed with a solution containing 0.1% tween-20 and 20 μM (+)-ABA/0224 compound or 0.1% Tween-20 and 0.05% DMSO, respectively, 25 days after sowing with an amount of 4 ml/pot; the leaf transpiration experiments of wheats were sprayed with a solution containing 0.1% tween-20 and 100 μM (+)-ABA/0224 compound or 0.1% Tween-20 and 0.05% DMSO (control) 18 days after sowing with an amount of 6 ml/pot. Images were taken daily using the FLIR A655sc thermal imager at the same time before and after spraying.
In this experiment, the temperature change of leaf surface was observed and recorded by an infrared camera, thus reflecting the strength of plant transpiration. The stronger the transpiration, the lower the leaf temperature.

[3] = 5 μM spray, after spraying, FIG. 4a-4c
[4] = 5 μM spray, four days after spraying

SMILES	leaf temperature versus DMSO control (leaf transpiration) [2, 3]	leaf temperature versus DMSO control (leaf transpiration) [2, 4]	pEC50 ([1]; FIG. 2c, read-out: EC50)	pEC50 ([1]; FIG. 2e, read-out: EC50)	duration of the leaf temperature increase ([2]; 5 μM spray)	inhibitory effect on leaf transpiration compared with ABA [2]	also measured
CC1=CC(=O)CC(C)(C)[C@@]1(O)/C=C/C(C)=C\C(=O)O [ABA, Abscisic Acid, reference compound]	significantly increased compared to that with control (DMSO) treatment; also recorded: the leaf temperature was higher than that in the DMSO control group	had dropped to the level before spraying	–	–	–	–	pEC50 ([1]; EC50, FIG. 2c): 6.06; pEC50 ([1]; EC50, FIG. 2e): 5.30; pEC50 ([1]; EC50, FIG. 2f): 6.83; pEC50 ([1]; EC50, FIG. 2g): 5.45
CCCN1C(=O)OC(C)c2cc(NS(=O)(=O)Cc3c(F)c(F)c(C)c(F)c3F)ccc21 (stereo not shown) [Compound 0224]	significantly increased compared to that with control (DMSO) treatment; also recorded: the leaf temperature was higher than that in the DMSO control group	still significantly higher than that in the DMSO control	7.53	7.04	longer	better than that of ABA	leaf temperature versus DMSO control (leaf transpiration) ([2]; 2 μM or 1 μM spray, four days after spraying, FIG. 4b): still significantly increased compared to that with control (DMSO) treatment; also recorded: still significantly higher than that in the DMSO control
CCCN1C(=O)OC(C)(C)c2cc(NS(=O)(=O)Cc3c(F)c(F)c(C)c(F)c3F)ccc21 [Compound 0304]	significantly increased compared to that with control (DMSO) treatment; also recorded: the leaf temperature was higher than that in the DMSO control group	still significantly higher than that in the DMSO control	7.23	–	–	better than that of ABA	–
CCCN1C(=O)OCc2cc(NS(=O)(=O)Cc3c(F)c(F)c(C)c(F)c3F)ccc21 [Compound 0428]	–	–	–	–	–	–	pEC50 ([1]; FIG. 2f, read-out: EC50): 7.72; leaf temperature versus DMSO control (leaf transpiration) ([2]; 5 μM/2 μM/1 μM, treated for one day, FIG. 4d): significantly increased compared to that with DMSO treatment; also recorded: higher than that in the DMSO control group
CCN1C(=O)OC(C)c2cc(NS(=O)(=O)Cc3c(F)c(F)c(C)c(F)c3F)ccc21 (stereo not shown) [Compound 0706]	significantly increased compared to that with control (DMSO) treatment; also recorded: significantly increased compared to the control (DMSO) treatment	–	–	7.00	equivalent to that of 0224	–	–
Cc1c(F)c(F)c(CS(=O)(=O)Nc2ccc3c(c2)C(C)OC(=O)N3CCCF)c(F)c1F (stereo not shown) [Compound 0715]	significantly increased compared to that with control (DMSO) treatment; also recorded: significantly increased compared to the control (DMSO) treatment	–	–	7.00	equivalent to that of 0224	–	–
